One assay concerns A549. Description: MTT cell viability assay, A549. Format: cell-based, human. To be noted: mean ± SE. The protocol: (§1) HeLa, A549, HepG2, HL-60, and WI-38 cell lines were incubated in DMEM solution containing 10% FBS for 48 h. The incubated tumor cells were seeded into 96-well plates (5 × 10^3 cells/well) to make them attach for 12 h. Afterwards, the cells were processed with the various concentrations of the synthetic compounds and 5-FU for 48 h. After removing the cell culture supernatant, 10 µl MTT (5 mg/ml) solution was dripped into the cells to generate a formazan product, which were dissolved by dimethyl sulfoxide (DMSO) 4 h later. Multifunction microplate reader (Bio-Rad Laboratories, Shanghai, China) was adopted to measure the absorbance at the wave length of 490 nm. The IC50 (the lowest drug concentration causing 50% of the tumor cells inhibition) was then calculated using GraphPad Prism Software (version 5.02) and used to indicate the cytotoxic effect of the target compounds on the selected tumor cells.

In the next assay the test system is Hela. Description: MTT cell viability assay, Hela. Format: cell-based, human. To be noted: 48 h, mean ± SE. The protocol:
as §1

The test system of another assay is HepG2. As to the kind of experiment: MTT cell viability assay, HepG2. Format: cell-based, human. Particulars: mean ± SE. As for the experimental part: as §1
A general note: Formazan colour is commonly taken as a measure of viable cells.

The test system of a further assay is HL-60. Description: MTT cell viability assay, HL-60. The format is cell-based, human. To be noted: mean ± SE. The protocol:
as §1

The test system of the next assay is WI-38. Description: MTT cell viability assay, normal cell line WI-38. The format is cell-based, human. Particulars: normal cells, mean ± SE. The protocol: as §1
Assay [1] deals with adherent tumor cell lines (HepG2, A549 and Hela). Description: MTT assay, summary over adherent tumor cell lines. Format: cell-based. Particulars: Homo sapiens; span of IC50 over compounds a11-a14 and adherent tumor cell lines; read-out: IC50 range over cell lines. As for the experimental part:
as §1

For assay [2], the system named is mitochondrial membrane potential in HepG2 cells. Description: Mitochondrial membrane potential by JC-1 probe. Particulars: CCCP for 20 min, without a14, positive control. Format: cell-based, human. As for the experimental part:
JC-1 probe was used to detect changes in MMP. Firstly, HepG2 cells (3 × 10^5 cells/well) were seeded into a six-well plate overnight for adherence, and then treated with various concentrations of a14 for 48 h. Next, the cells were treated with JC-1 (2.5 µg/ml) at 37°C for 10 min in the dark and rinsed three times with PBS. Then, the six-well plate was placed under the fluorescence microscope (excitation 480/30× nm, emission 515 nm) to observe the fluorescence color and intensity of JC-1 in the cells. In addition, HepG2 cells (3 × 10^5 cells/well) were inoculated on another six-well plate overnight to allow adherence, and then treated with a14 (50 µM) for 0, 12, 24, 36, and 48 h, adding CCCP (without a14) for 20 min to completely lose the mitochondrial membrane potential. Cells were then incubated with JC-1 (2.5 µg/ml) at 37°C in the dark for 10 min and rinsed with PBS for three times. Fluorescence intensity of residual JC-1 in cells was measured by Beckman Coulter flow cytometer (FITC, 525/40BP). The data obtained was analyzed by CytExpert 2.0 software imbedded in the flow cytometry.

The term IC50 denotes the midpoint of a concentration-inhibition curve.

Regarding `O=c1[nH]cc(F)c(=O)[nH]1` [5-FU, reference compound], the IC50 in the assay with A549 (48 h) is 53.7 ± 1.16 µM; with Hela it was 35.2 ± 1.39 µM; in the assay on HepG2 (48 h), 42.9 ± 2.88 µM; in the assay on HL-60 (48 h) it was 165 ± 4.74 µM; in the assay on WI-38 (48 h), 62.8 ± 2.03 µM.

Turning to `NC(=O)c1cc(C(=O)/C=C/c2ccc(F)cc2)ccc1O` [a1], the IC50 with A549 (Homo sapiens, A549, 48 h) came to 107 ± 2.14 µM; with Hela (Homo sapiens, HeLa), 125 ± 6.92 µM; in the assay with HepG2 (Homo sapiens, HepG2, 48 h), 135 ± 9.79 µM; with HL-60 (Homo sapiens, HL-60, 48 h) it was 131 ± 5.38 µM; in the assay on WI-38 (Homo sapiens, WI-38, 48 h), 229 ± 7.38 µM.

For the compound `NC(=O)c1cc(C(=O)/C=C/c2cccc(Cl)c2)ccc1O` [a2], the IC50 in the assay with A549 (Homo sapiens, A549, 48 h) worked out at 82.5 ± 3.61 µM; with Hela (Homo sapiens, HeLa), 98.9 ± 2.9 µM; with HepG2 (Homo sapiens, HepG2, 48 h), 77 ± 1.34 µM; in the assay with HL-60 (Homo sapiens, HL-60, 48 h), 135 ± 2.45 µM; with WI-38 (Homo sapiens, WI-38, 48 h), 122 ± 2.33 µM.

Take `NC(=O)c1cc(C(=O)/C=C/c2cccc(Br)c2)ccc1O` [a3]: the half-maximal inhibitory concentration (IC50) with A549 (Homo sapiens, A549, 48 h) stood at 59.6 ± 5.23 µM; with Hela (Homo sapiens, HeLa), 77.6 ± 4.74 µM; in the assay with HepG2 (Homo sapiens, HepG2, 48 h), 71.2 ± 4.63 µM; in the assay on HL-60 (Homo sapiens, HL-60, 48 h) it was 141 ± 5.19 µM; in the assay with WI-38 (Homo sapiens, WI-38, 48 h), 126.2 ± 0.46 µM.

For the compound `NC(=O)c1cc(C(=O)/C=C/c2ccc(Br)cc2)ccc1O` [a4], the IC50 in the assay on A549 (Homo sapiens, A549, 48 h) worked out at 48.2 ± 2.25 µM; with Hela (Homo sapiens, HeLa), 65.9 ± 7.8 µM; in the assay on HepG2 (Homo sapiens, HepG2, 48 h) it was 46.41 ± 0.05 µM; with HL-60 (Homo sapiens, HL-60, 48 h) it was 110 ± 2.04 µM; in the assay with WI-38 (Homo sapiens, WI-38, 48 h), 100 ± 11.5 µM.

On to `NC(=O)c1cc(C(=O)/C=C/c2ccccc2)ccc1O` [a5], for which the concentration for half-maximal inhibition (IC50) in the assay with A549 (Homo sapiens, A549, 48 h) was 57.2 ± 1.53 µM; with Hela (Homo sapiens, HeLa) it was 82.2 ± 4.8 µM; in the assay with HepG2 (Homo sapiens, HepG2, 48 h), 68.1 ± 5.51 µM; in the assay with HL-60 (Homo sapiens, HL-60, 48 h), 108 ± 3.5 µM; in the assay with WI-38 (Homo sapiens, WI-38, 48 h), 127 ± 6.6 µM.

Consider `Cc1ccccc1/C=C/C(=O)c1ccc(O)c(C(N)=O)c1` [a6], for which the IC50 in the assay with A549 (Homo sapiens, A549, 48 h) is 51.3 ± 2.11 µM; with Hela (Homo sapiens, HeLa) it was 74.8 ± 2.33 µM; in the assay with HepG2 (Homo sapiens, HepG2, 48 h) it was 75.4 ± 3.27 µM; with HL-60 (Homo sapiens, HL-60, 48 h) it was 213 ± 2.98 µM; in the assay with WI-38 (Homo sapiens, WI-38, 48 h), 109 ± 1.49 µM.

Turning to `Cc1cccc(/C=C/C(=O)c2ccc(O)c(C(N)=O)c2)c1` [a7], the concentration for half-maximal inhibition (IC50) in the assay on A549 (Homo sapiens, A549, 48 h) was found to be 40.7 ± 3.68 µM; in the assay with Hela (Homo sapiens, HeLa) it was 40.7 ± 1.33 µM; in the assay with HepG2 (Homo sapiens, HepG2, 48 h), 55.6 ± 3.23 µM; in the assay with HL-60 (Homo sapiens, HL-60, 48 h), 111 ± 1.57 µM; in the assay on WI-38 (Homo sapiens, WI-38, 48 h), 81.7 ± 1.13 µM.

With `Cc1ccc(/C=C/C(=O)c2ccc(O)c(C(N)=O)c2)cc1` [a8], the half-maximal inhibitory concentration (IC50) in the assay on A549 (Homo sapiens, A549, 48 h) turned out to be 65 ± 2.35 µM; in the assay on Hela (Homo sapiens, HeLa), 53.6 ± 0.67 µM; with HepG2 (Homo sapiens, HepG2, 48 h), 57.4 ± 3.07 µM; in the assay with HL-60 (Homo sapiens, HL-60, 48 h) it was 301 ± 3.53 µM; in the assay with WI-38 (Homo sapiens, WI-38, 48 h), 147 ± 13.2 µM.

Consider `COc1ccccc1/C=C/C(=O)c1ccc(O)c(C(N)=O)c1` [a9], for which the IC50 with A549 (Homo sapiens, A549, 48 h) is 57.6 ± 1.42 µM; in the assay with Hela (Homo sapiens, HeLa) it was 65.1 ± 1.34 µM; with HepG2 (Homo sapiens, HepG2, 48 h), 80.3 ± 1.87 µM; in the assay with HL-60 (Homo sapiens, HL-60, 48 h), 210 ± 3.03 µM; with WI-38 (Homo sapiens, WI-38, 48 h), 98.5 ± 4.91 µM.

For the compound `COc1cccc(/C=C/C(=O)c2ccc(O)c(C(N)=O)c2)c1` [a10], the IC50 in the assay on A549 (Homo sapiens, A549, 48 h) came out at 45.6 ± 1.05 µM; with Hela (Homo sapiens, HeLa), 54.4 ± 1.11 µM; in the assay with HepG2 (Homo sapiens, HepG2, 48 h), 70.8 ± 4.03 µM; with HL-60 (Homo sapiens, HL-60, 48 h), 131 ± 4.64 µM; in the assay on WI-38 (Homo sapiens, WI-38, 48 h) it was 93.3 ± 3.13 µM.

For the compound `COc1ccc(/C=C/C(=O)c2ccc(O)c(C(N)=O)c2)cc1` [a11], the IC50 with A549 (Homo sapiens, A549, 48 h) was 35.8 ± 1.02 µM; in the assay on Hela (Homo sapiens, HeLa), 48.2 ± 0.56 µM; in the assay on HepG2 (Homo sapiens, HepG2, 48 h), 44.7 ± 1.56 µM; in the assay with HL-60 (Homo sapiens, HL-60, 48 h), 245 ± 5.54 µM; in the assay with WI-38 (Homo sapiens, WI-38, 48 h), 89.5 ± 6.61 µM; in assay [1] it was 23.3 to 54.4 µM.

For `COc1ccc(/C=C/C(=O)c2ccc(O)c(C(N)=O)c2)c(OC)c1` [a12], the IC50 with A549 (Homo sapiens, A549, 48 h) is 41.2 ± 2.15 µM; in the assay on Hela (Homo sapiens, HeLa), 35.3 ± 2.13 µM; in the assay on HepG2 (Homo sapiens, HepG2, 48 h) it was 54.37 ± 0.52 µM; with HL-60 (Homo sapiens, HL-60, 48 h), 160 ± 3.59 µM; in the assay on WI-38 (Homo sapiens, WI-38, 48 h), 123 ± 2.45 µM; in assay [1], 23.3 to 54.4 µM.

For `COc1ccc(/C=C/C(=O)c2ccc(O)c(C(N)=O)c2)cc1OC` [a13], the half-inhibitory concentration (IC50) with A549 (Homo sapiens, A549, 48 h) was 37.6 ± 1.11 µM; with Hela (Homo sapiens, HeLa), 31.8 ± 1.62 µM; in the assay with HepG2 (Homo sapiens, HepG2, 48 h), 50.3 ± 4.03 µM; in the assay on HL-60 (Homo sapiens, HL-60, 48 h) it was 134 ± 4.44 µM; with WI-38 (Homo sapiens, WI-38, 48 h), 118 ± 3.53 µM; in assay [1] it was 23.3 to 54.4 µM.

For “carbonyl cyanide m-chlorophenyl hydrazine [CCCP, reference compound]”, the “JC-1 (FITC), right of the gate line (green fluorescence)” value in assay [2] came to 99.98%.
